One data set in a line: Solubility in chloroform. Format: physicochemical. To be noted: organic solvent or mixture. As for the experimental part: (§1) For the absorption characteristic of such compounds, absorption spectra were measured by use of a near infrared photospectrometer to confirm that they could be utilized as materials for the optical switch operating at a wavelength of 1.3 μm. Further, for the thermal stability, the thermal decomposition temperature was measured by thermogravimetry and differential thermal analysis to confirm that they were thermally stable materials for the optical switch. Further, their solubility in organic solvents such as chloroform and acetone was confirmed.

Data set [1] can be described thus: Thermal decomposition temperature by thermogravimetry and differential thermal analysis. Format: physicochemical. How it is done: as §1

Molecules are shown by their SMILES. ≈ marks a conversion by molar mass, not a printed value.

As a reminder, the solubility is how much of the substance goes into solution per volume.

Regarding `CC(C)CN(CC(C)C)c1cc(O)c2c(c1)OC(=O)/C2=C(/[O-])C1=C2C(O)=CC(=[N+](CC(C)C)CC(C)C)C=C2OC1=O` [Compound (1)], the solubility in the data set “Solubility in chloroform” worked out at 54 mg/mL (≈ 93.3 mM). The “decomposition temperature (thermal stability)” value in data set [1] was 202.7 °C.
As to `CCN(CC)c1cc(O)c2c(c1)OC(=O)/C2=C(/[O-])C1=C2C(O)=CC(=[N+](CC)CC)C=C2OC1=O` [Compound (2)], in the data set “Solubility in chloroform”, the solubility is 3 mg/mL (≈ 6.43 mM). The “decomposition temperature (thermal stability)” value in data set [1] is at least 200 °C.

Values taken from patent US6825363B2, “Compounds useful in optical switching and manufacturing method thereof” (Fuji Xerox Co., Ltd., priority 2002, dated 2004).
